Results from patent publication US20170050957A1, “4-AMINO-6-(HETEROCYCLIC)PICOLINATES AND 6-AMINO-2-(HETEROCYCLIC)PYRIMIDINE-4-CARBOXYLATES AND THEIR USE AS HERBICIDES” (Dow AgroSciences LLC, priority 2013, published 2017).
Like-named read-outs stand apart in the source and are kept apart here.

Assays:
[1] = test system: Key Grass and Sedge Weeds as well as Grass Crops; assay: Post-emergent Test II herbicidal activity (Table 16); type: in vivo; conditions: post-emergence, 336 h, 14 d; for pest or weed control at 35 g/ha: 35 g ai/ha; for pest or weed control at 70 g/ha: 70 g ai/ha; for pest or weed control at 140 g/ha: 140 g ai/ha
Method in brief: (§1)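 Greenhouse-grown seedlings at first/second true leaf receive a track spray at 187 L/ha, using a highest rate plus two-fold serial dilutions down to 1/16×. Watering is by subirrigation to avoid wash-off. Percent injury (0-100) is judged by eye at 14 d against untreated plants.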

[2] = test system: Key Broadleaf Weed and Crop Species; assay: Post-emergent Test II herbicidal activity (Table 15); type: in vivo; conditions: post-emergence, 336 h, 14 d; for pest or weed control at 35 g/ha: 35 g ai/ha; for pest or weed control at 70 g/ha: 70 g ai/ha; for pest or weed control at 140 g/ha: 140 g ai/ha
Method in brief: as §1

[3] = Cyperus esculentus, yellow nutsedge (Cyperus esculentus), read-out: Visual Growth Reduction (%) 14 Days After Application, CYPES
[4] = Echinochloa crus-galli, barnyardgrass (Echinochloa crus-galli), read-out: Visual Growth Reduction (%) 14 Days After Application, ECHCG
[5] = Oryza sativa, rice (Oryza sativa), read-out: Visual Growth Reduction (%) 14 Days After Application, ORYSA
[6] = Setaria faberi, giant foxtail (Setaria faberi), read-out: Visual Growth Reduction (%) 14 Days After Application, SETFA
[7] = Triticum aestivum, wheat, spring (Triticum aestivum), read-out: Visual Growth Reduction (%) 14 Days After Application, TRZAS
[8] = Zea mays, maize, corn (Zea mays), read-out: Visual Growth Reduction (%) 14 Days After Application, ZEAMX
[9] = Abutilon theophrasti, velvetleaf (Abutilon theophrasti), read-out: Visual Growth Reduction (%) 14 Days After Application, ABUTH
[10] = Amaranthus retroflexus, redroot pigweed (Amaranthus retroflexus), read-out: Visual Growth Reduction (%) 14 Days After Application, AMARE
[11] = Brassica napus, oilseed rape, canola (Brassica napus), read-out: Visual Growth Reduction (%) 14 Days After Application, BRSNN
[12] = Chenopodium album, lambsquarters (Chenopodium album), read-out: Visual Growth Reduction (%) 14 Days After Application, CHEAL
[13] = Euphorbia heterophylla, wild poinsettia (Euphorbia heterophylla), read-out: Visual Growth Reduction (%) 14 Days After Application, EPHHL
[14] = Helianthus annuus, sunflower (Helianthus annuus), read-out: Visual Growth Reduction (%) 14 Days After Application, HELAN

COC(=O)c1nc(-c2ccc3c(ccn3C)c2)c(F)c(N)c1Cl [Compound 1.03]
125 to 127 °C: melting point
45 to 59%: pest or weed control at 140 g/ha [2, 14]
60 to 74%: pest or weed control at 140 g/ha [1, 4]
95 to 100%: pest or weed control at 140 g/ha [2, 12] | pest or weed control at 35 g/ha [2, 13] | pest or weed control at 70 g/ha [2, 13]
75 to 84%: pest or weed control at 140 g/ha [2, 9]
85 to 94%: pest or weed control at 140 g/ha [2, 10] | pest or weed control at 35 g/ha [2, 12] | pest or weed control at 70 g/ha [2, 12] | pest or weed control at 140 g/ha [2, 13]
0 to 29%: pest or weed control at 35 g/ha [1, 3] | pest or weed control at 70 g/ha [1, 3] | pest or weed control at 140 g/ha [1, 3] | pest or weed control at 35 g/ha [1, 4] | pest or weed control at 70 g/ha [1, 4] | pest or weed control at 35 g/ha [1, 5] | pest or weed control at 70 g/ha [1, 5] | pest or weed control at 140 g/ha [1, 5] | pest or weed control at 35 g/ha [1, 6] | pest or weed control at 70 g/ha [1, 6] | pest or weed control at 140 g/ha [1, 6] | pest or weed control at 35 g/ha [1, 7] | pest or weed control at 70 g/ha [1, 7] | pest or weed control at 140 g/ha [1, 7] | pest or weed control at 35 g/ha [1, 8] | pest or weed control at 70 g/ha [1, 8] | pest or weed control at 140 g/ha [1, 8] | pest or weed control at 35 g/ha [2, 9] | pest or weed control at 70 g/ha [2, 9] | pest or weed control at 35 g/ha [2, 11] | pest or weed control at 70 g/ha [2, 11] | pest or weed control at 140 g/ha [2, 11] | pest or weed control at 35 g/ha [2, 14] | pest or weed control at 70 g/ha [2, 14]

Nc1c(F)c(-c2ccc3occc3c2)nc(C(=O)O)c1Cl [Compound 2.02]
85 to 94%: pest or weed control at 35 g/ha [1, 4] | pest or weed control at 70 g/ha [1, 4] | pest or weed control at 70 g/ha [2, 9] | pest or weed control at 140 g/ha [2, 9] | pest or weed control at 70 g/ha [2, 14]
95 to 100%: pest or weed control at 140 g/ha [1, 4] | pest or weed control at 35 g/ha [1, 8] | pest or weed control at 70 g/ha [1, 8] | pest or weed control at 140 g/ha [1, 8] | pest or weed control at 70 g/ha [2, 10] | pest or weed control at 140 g/ha [2, 10] | pest or weed control at 35 g/ha [2, 12] | pest or weed control at 70 g/ha [2, 12] | pest or weed control at 140 g/ha [2, 12] | pest or weed control at 70 g/ha [2, 13] | pest or weed control at 140 g/ha [2, 13] | pest or weed control at 140 g/ha [2, 14]
165 to 167 °C: melting point
75 to 84%: pest or weed control at 140 g/ha [1, 6] | pest or weed control at 35 g/ha [2, 10] | pest or weed control at 35 g/ha [2, 13] | pest or weed control at 35 g/ha [2, 14]
45 to 59%: pest or weed control at 140 g/ha [1, 7] | pest or weed control at 35 g/ha [2, 9]
30 to 44%: pest or weed control at 70 g/ha [1, 7] | pest or weed control at 70 g/ha [2, 11] | pest or weed control at 140 g/ha [2, 11]
60 to 74%: pest or weed control at 35 g/ha [1, 6] | pest or weed control at 70 g/ha [1, 6]
0 to 29%: pest or weed control at 35 g/ha [1, 3] | pest or weed control at 70 g/ha [1, 3] | pest or weed control at 140 g/ha [1, 3] | pest or weed control at 35 g/ha [1, 5] | pest or weed control at 70 g/ha [1, 5] | pest or weed control at 140 g/ha [1, 5] | pest or weed control at 35 g/ha [1, 7] | pest or weed control at 35 g/ha [2, 11]
